Reference: US20110105436A1, “HETEROARYL COMPOUNDS, COMPOSITIONS, AND METHODS OF USE IN CANCER TREATMENT” (AUCKLAND UNISERVICES LIMITED, priority 2008, published 2011)

System: RCC4, RCC4/VHL, SN12C and SN12C-VHL shRNA cells
Assay: Acidic vesicle organelles with acridine orange (FACS)
Type: cell-based
Details: 1.25 μM, VHL-deficient versus wild-type VHL cells
Method: Quantification of Acidic Vesicle Organelles with Acridine Orange. In acridine orange-stained cells, the cytoplasm and nucleus are bright green and dim red, whereas acidic compartments are bright red. The intensity of the red fluorescence is proportional to the degree of acidity. Following 20 hours of treatment with STF-62247 or analogs, cells were stained with 1 μg/ml of acridine orange for 15 min. Cells were trypsinized and then analyzed by flow cytometry using FACScan cytometer and CellQuest software.
A. VHL-deficient RCC4 and wild-type VHL were incubated in presence of 10 μM LY294002, or 1 μg/mlBrefeldin A with 1.25 μM of STF-62247 for 20 hrs and the presence of vacuoles was examined under light microscopy. B,C. LC3 processing was evaluated by Western blot after the treatment with Brefeldin A or LY294002 in presence or absence of STF-62247 as described above. Tubulin was used as loading control. D. Cells were treated with 1.25 μM of STF-62247 with or without 2 mM of 3-MA, 1 μg/ml of Brefeldin A for 20 hrs. For the last 15 min, acidic components were stained with 1 μg/ml of acridine orange and visualized under fluorescence microscope. […] F. Quantification of the FACS analysis. The data are calculated as the average of three different experiments as relative units of treated over untreated cells. The error bars are represented as the standard error of the mean (SEM).
A. RCC4 and RCC4/VHL were treated with 1.25 μM of each 19 analogs for 20 hours and the presence of vacuoles was examined under light microscopy. B. Western blot for LC3 after treatment with each compound. Tubulin was used as loading control. Ratio is the relative from the IC50 in RCC4/VHL cells/IC50 in RCC4 cells. C. Acidic vesicle organelles (AVO) measured by FACS analysis in cells treated with 1.25 μM of STF-62247 or with compounds 21, 15, 25, 47, and 53 and stained with acridine orange.

Cc1cccc(Nc2nc(-c3ccncc3)cs2)c1 [Compound 5, N-(3-Methylphenyl)-4-(4-pyridinyl)-1,3-thiazol-2-amine]
acridine orange staining / amount of AVOs: significantly increased in VHL-deficient RCC4 cells compared to their wild-type VHL counterparts
